Like-named read-outs stand apart in the source and are kept apart here.
Legend:
[1] = biological target: T1, horse spleen apoferritin (Equus caballus, UniProt P02791); test: isothermal titration calorimetry; assay type: binding
T1 construct: gene FTL; native spleen apoferritin from Sigma-Aldrich, 24-mer, heavy and light chains in approximate mole ratio 1:6; with Ferritin heavy chain
T1 sequence (P02791 2-175): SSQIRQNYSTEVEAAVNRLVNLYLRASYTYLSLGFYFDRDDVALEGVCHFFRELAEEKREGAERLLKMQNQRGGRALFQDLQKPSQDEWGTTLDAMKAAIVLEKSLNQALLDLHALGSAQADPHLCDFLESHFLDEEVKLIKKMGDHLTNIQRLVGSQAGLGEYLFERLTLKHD

[2] = biological target: the molecule itself; test: crystal structure; apoferritin co-crystallized with thiopental or pentobarbital; reservoir 0.2-1.6 M (NH4)2SO4, 0.1-0.275 M CdSO4, 18°C; space group F432

CCC[C@@H](C)C1(CC)C(=O)NC(=S)NC1=O [R-form of thiopental]
Kd ([1]; read-out: K d): 29.3 ± 3.1 µM

CCCC(C)C1(CC)C(=O)NC(=O)NC1=O (racemic) [Pentobarbital]
Kd [1]: 64.3 ± 5.5 µM

CCC[C@H](C)[C@@]1(CC)C(=O)N=C(S)NC1=O [S-enantiomer of thiopental]
Kd ([1]; read-out: K d): 18.7 ± 0.9 µM

CCCC(C)C1(CC)C(=O)NC(=S)NC1=O (racemic) [Thiopental]
Kd ([1]; read-out: Thiopental): 11 ± 0.9 µM

B1: horse spleen apoferritin (natural protein, UniProt P02791 1-175, looked up)
chain: MSSQIRQNYSTEVEAAVNRLVNLYLRASYTYLSLGFYFDRDDVALEGVCHFFRELAEEKREGAERLLKMQNQRGGRALFQDLQKPSQDEWGTTLDAMKAAIVLEKSLNQALLDLHALGSAQADPHLCDFLESHFLDEEVKLIKKMGDHLTNIQRLVGSQAGLGEYLFERLTLKHD
notes: ferritin light chain of horse spleen apoferritin; only the light chain is modelled in the structures; The commercial apoferritin is a mixture of heavy and light chains in an approximate mole ratio of 1:6; Only the light chain is seen in the electron density, so the 24-mer is written here as light chains only; also called L-chain; L-protomers; source: bought: Sigma-Aldrich; purified by gel …
stoichiometry N [2]: 24
